We go through two compounds from patent US11992497B2 (priority 2021, dated 2024).

For data set [1], the system named is human intestine microsomes. The data set is described as follows: Metabolic stability in human intestine microsomes (UDPGA, UGT activity only). The data set is classed as in vitro ADME. How it is done:
(§1) The objective of this study was to investigate the stability of the test compound, CBG, in the presence of intestinal microsomes that only have UGT activity and no CYP activity.
(§2) Test compound (1 μM) was incubated with pooled intestinal microsomes at 6 time points over the course of a 60 min assay and the test compound is analyzed by LC-MS/MS.
(§3) The final incubation volume is 500 μL. A minus cofactor control incubation was included for each compound tested where 0.1 M Tris, 5 mM MgCl2 buffer pH 7.4 is added instead of UDPGA (minus UDPGA). Two control compounds were included. All incubations were performed singularly for each test compound.
(§4) Each compound was incubated for 0, 5, 10, 20, 40 and 60 min. The control (minus UDPGA) was incubated for 60 min only. The reactions were stopped by transferring incubate into acetonitrile at the appropriate time points, in a 1:3 ratio. The termination plates were centrifuged at 3,000 rpm for 20 min at 4° C. to precipitate the protein.
(§5) Following protein precipitation, the sample supernatants were combined in cassettes of up to 4 compounds, internal standard was added and samples analysed using Cyprotex generic LC-MS/MS conditions.
(§6) From a plot of ln peak area ratio (compound peak area/internal standard peak area) against time, the gradient of the line was determined. Subsequently, half-life and intrinsic clearance were calculated using the equations below: […]

Test in data set [2]: as above
It counts as in vitro ADME. Particulars: human, pooled intestinal microsomes, pH 7.4, 1 μM, 0.5 mg/mL microsomes + alamethicin, UDPGA. On the procedure:
as §1, §2, §3, §4, §5, §6

In data set [3] the test system is lipopolysaccharide (LPS)-induced inflammation. Briefly: Rat LPS model, serum pro-inflammatory cytokines. It counts as in vivo, Sprague Dawley rats. Conditions: oral, 4 days; 2 h after LPS. How it is done:
This assay was employed to determine the efficacies of CBG, compound 1, and compound 2 against lipopolysaccharide (LPS)-induced inflammation in Sprague Dawley rats.
Eight- to 10-week-old male rats were treated with CBG, Compound 1, and Compound 2, or a positive control (cyclosporin A) for four days prior to treatment with LPS. Twenty-eight (28) Sprague Dawley male rats, 8-10 weeks old, were used for this study. Animals were randomized by weight into one of 7 treatment groups as shown in Table 10 below and treated for 4 days with either vehicle control (Groups 1 and 2), Cyclosporin A (Neoral) (Group 3), CBG at 30 mg/kg (Group 4), Compound 1 at 31.5 mg/kg (Group 5), Compound 2 at 32.7 mg/kg (Group 6) or CBG at 30 mg/kg (intraperitoneal/IP; Group 7). Groups 1-6 were dosed for 4 days by oral gavage; group 7 was dosed for 4 days by IP injection. After the 4th injection, Groups 2-7 received a single IP injection of LPS at 5 mg/kg to induce inflammation. Body weight was recorded every other day starting on the day of or day prior to the first day of treatment. A terminal body weight was recorded. General health and clinical signs were recorded once daily. Blood was collected to isolate immune cells at 2 hours after the LPS injection. […]
Serum samples (N=82) were processed and shipped to Inotiv Boulder for analysis. […] The samples were analyzed for cytokine levels using the RECYTMAG-65K Luminex™ kit. […]

For the compound `CCCCCc1cc(O)c(C/C=C(\C)CCC=C(C)C)c(O)c1` [CBG, cannabigerol], in data set [1] (CBG incubated with human intestine microsomes), the “appearance of CBG-glucoronide (in words)” value is on record as “appeared rapidly”. For the same compound, the “Comments: detectability of test compound” value in data set [1] (by 10 minutes) is on record as “Test compound not detectable”. Further, the “disappearance of parent compound (in words)” value in data set [1] (incubated with human intestine microsomes) is “disappeared rapidly”. In data set [2], the half-life at 1 µM was determined as 1.57 min. Moreover, in data set [2] (from 0 and 5 minute time points only), the microsomal CLint at 1 µM was determined as 884 µL/min/mg.

Turning to `CCCCCc1cc(OC)c(C/C=C(\C)CCC=C(C)C)c(OC)c1` [Compound 2, (E)-2-(3,7-dimethylocta-2,6-dien-1-yl)-1,3-dimethoxy-5-pentylbenzene], in data set [3], the “reduction of IL-1B and IFNy relative to CBG (in words)” value is reported as “equal to or better than CBG”.
